Assay results reported in patent publication US5486505A, “Polypeptide compounds having growth hormone releasing activity” (Polygen Holding Corporation, priority 1992, dated 1996).

System: growth hormone (GH) release
Assay: In vivo GH release in pentobarbital anesthetized rats (serum GH by RIA)
Design: species or system immature female Sprague-Dawley rats
Conditions: Table 4, control GH 181 ± 69
Procedure: Immature female Sprague-Dawley rats were obtained from the Charles River Laboratories (Wilmington, Mass.). After arrival they were housed at 25° C. with a 14:10 hour light:dark cycle. Water and Purina rat chow were available ad libitum. Pups were kept with their mothers until 21 days of age.
Twenty-six day old rats, six rats per treatment group, were anesthetized interperitoneally with 50 mg/Kg of pentobarbital 20 minutes prior to i. v. treatment with peptide. Normal saline with 0.1% gelatin was the vehicle for intravenous (i. v.) injections of the peptides. The anesthetized rats, weighing 55-65 grams, were injected i. v. with the quantity of growth hormone releasing compounds indicated in Tables 3 and 4. Injection was made as a 0.2 mL solution into the jugular vein.
All animals were sacrificed by guillotine 10 minutes after the final test injection (see Tables 3 and 4). Trunk blood for the determination of blood GH levels was collected following decapitation. After allowing the blood to clot, it was centrifuged and the serum was separated from the clot. […]
The mixed reagents are then typically incubated at room temperature (about 25° C.) for about 24 hours prior to addition of a second antibody (e.g., goat or rabbit anti-monkey gamma globulin serum) which binds to and causes precipitation of the complexed growth hormone antiserum. Precipitated contents of the RIA tubes are then analyzed for the number of counts in a specified period of time in a gamma scintillation counter. […] GH levels of unknowns are then determined by reference to the standard curve.
Serum GH was measured by RIA with reagents provided by the National Hormone and Pituitary Program.
Serum levels in Tables 3 and 4 are recorded in ng/mL in terms of the rat GH standard of 0.61 International Units/mg (IU/mg). Data is recorded as the mean +/- standard error of the mean (SEM). […]

Question: Which results are given for “His--DCys(SMe)--Ala--Trp--DPhe--Lys--NH2”?
Answer: GH Released (total dose 1.0 μg i.v.): 193 ± 28 ng/mL; GH Released (total dose 3.0 μg i.v.): 180 ± 34 ng/mL; GH Released (total dose .3 μg i.v.): 178 ± 28 ng/mL
